Experimental data as given in patent publication US7888389B2 (The Regents of the University of Michigan, priority 2002, dated 2011).
“And” between values parts separate entries of the source, which are not always exact repeats. Equal entries are not always repeated. Where two headings read alike, the source gives them in different places.

Legend:
mammary tumors = assay: Mammary tumor development in HER2-neu transgenic mice
[1] = cited from earlier work
[2] = Stability in open Petri dishes at room temperature (activity over time); conditions: for percentage activity: open Petri dishes at room temperature
From the text: FIG. 4. […] Stability of each compound was studied under conditions that exacerbate instability, i.e. the drugs were in open Petri dishes at room temperature. The percentage activity is plotted as a function of time in days.
This study was done under conditions that exacerbate instability, ie. the drugs were in open Petri dishes at room temperature.

[3] = tested on: mouse sarcoma, MCA205, and mouse melanoma, B16B16; assay: Mouse tumor model, injected tumor cells; assay type: in vivo, C57B1/6J mice
Description: Under these guidelines, anti-angiogenesis therapeutic studies were conducted using TM in a mouse tumor model. This study involved subcutaneous or intramuscular injection of tumor cells into young adult C57B1/6J mice. Two tumors were used, a mouse sarcoma, MCA205, and a mouse melanoma, B16B16. The MCA 205 tumor cell suspension was injected subcutaneously into C57B16 mice. After the tumors were palpable, copper deficiency was induced by use of TM in half the animals, using Cp levels to monitor copper status. The other half were sham treated. Tumor growth was compared between the untreated control group and mice treated with sufficient TM to reduce Cp to about 10% of normal controls.

[4] = cited from earlier work; remark: listed apart in the source
[5] = tested on: SUM149 breast cancer cells; assay: SUM149 orthotopic tumors in nude mice; assay type: in vivo
From the text: In this study, the ability of tetrathiomolybdate (TM) to abrogate or retard the growth of tumors in the mammary pads of nude mice after orthotropic injection of human breast cancer cells was studied. The highly angiogenic inflammatory breast cancer cell line called SUM149 was selected for this study. Given its high propensity to form palpable tumors within 2 weeks of injection into the mammary of 80-100% of the nude mice injected, this cell line posed a stringent test of the ability of TM to impair tumor progression.
Three groups of 5 nude mice each were set up in separate cages. Groups 2 and 3 received TM in the drinking water to average an intake of 1.2 mg/day/mouse, starting at day-7. Groups 1, 2, and 3 were injected on day 0 with 10^6 SUM149 breast cancer cells in the second thoracic mammary fat pad. On day 34, as no palpable tumors were noticeable in any of the mice in the treatment groups, TM was skipped on groups 2 and 3, and then TM was restarted on group 2at a dose of 0.6 mg/day/mouse, while TM was resumed at full dose (1.2 mg/mouse/day) in group 3.
The developing tumors were measured approximately twice weekly, and the average of the product of the bi-dimensional perpendicular diameters for each group versus time was determined. The tumors in the control group grew relatively rapidly and all animals developed tumors. […] This dose decreases copper to approximately 10-20% of baseline levels. It is this degree of copper deficiency, well tolerated in both mice and humans, which appears to be required to inhibit tumor angiogenesis.

[6] = Stability in moist heated air; assay type: physicochemical
[7] = tested on: MML cells (prostate cancer) and breast cancer cells
[8] = IV 99Mo labeled TM, sheep; cited from earlier work
[9] = Storage stability of TM (bulk and capsules); assay type: physicochemical; conditions: room temperature
From the text: TM and salts of TM are available; one of the preferred salts of TM is the ammonium salt. […] TM purchased from Aldrich Chemical Company (available in one kilogram bulk lots) is certified pure for human use. The bulk drug should be stored in the absence of oxygen, or the oxygen will gradually exchange with the sulfur, rendering the drug ineffective over time. The bulk drug is therefore stored under argon.
TM was purchased in bulk lots suitable for human administration (Aldrich Chemical Company, Milwaukee, Wis.). […] At the time a prescription was written, the appropriate dose of TM was placed in gelatin capsules. […] Thus, TM was dispensed to each patient in eight-week installments throughout the trial.

[10] = cited from earlier work; remark: listed apart in the source
[11] = late stages of liver disease; cited from earlier work
[12] = ½ dose of TM (0.6 mg/day/mouse)

In the case of tetrathiomolybdate [TM], the “TM-treated mice developing clinically overt tumors” value (mammary tumors; 0.5-1.0 mg TM by gavage daily from 100 days of age, median follow-up 260 days) was “none”, the “ceruloplasmin (Cp) in treatment group” value (mammary tumors; 0.5-1.0 mg TM daily) was “below 40 % of baseline” and the “outcome at higher doses” value (mammary tumors; 1.25-1.5 mg TM) was “died after 1-3 weeks of therapy”. For the same substance, the “shrinkage of well established tumors (>1.5 cm)” value (mammary tumors; 3 control animals treated, 2/3 cases) was 25% and 50%, the “vascularization of micro-tumors in mammary glands” value (mammary tumors; TM-treated mice, microscopic analyses) was “none of the micro-tumors of the treated mice were vascularized” and the “maximum tolerated dose (MTD), prolonged treatment” value (mammary tumors; adult mice, average weight 32 grams) was 1.0 mg/day. The anemia (mammary tumors; copper (Cp) decreased to below 40% of baseline) was “no anemia observed”, the clinically overt toxicity (mammary tumors; copper levels decreased to 10% of baseline) was “no clinically overt toxicity” and the “time to clinically overt mammary tumors after release from treatment” value (mammary tumors; cross-over group previously disease-free) was ≤ 18 days. For the same substance, the “speed of reducing Cp level to <20%” value (metastatic solid tumors; 20 mg tid with meals plus single 60 mg between meals vs 20 mg tid with and 20 mg tid between meals) was “more rapidly”, the “mean time to 50% reduction of Cp” value (metastatic solid tumors; 90, 105, 120 mg/day) was 30 days and the “median time to Cp 50% of baseline” value (metastatic solid tumors; 90, 105, 120 mg/day) was 28 days. For the same substance, the “level III dose outcome” value (metastatic solid tumors; TM 120 mg/day) was “effective in reaching the target Cp, without added toxicity”, the “time for further reduction to Cp levels of 5-10 mg/dl” value (metastatic solid tumors; after reaching 50% of baseline) was 20 to 30 days and the “lung lesions in two patients with stable disease” value (metastatic solid tumors; at target Cp for 120 and 49 days) was “complete disappearance of some lung lesions and decrease in size of other lung lesions”. The “additional toxicities with long-term maintenance” value (metastatic solid tumors; human, in vivo) was “No additional toxicities of any type were observed”, the burping (metastatic solid tumors; human, in vivo) was “Several patients experienced transient, occasional sulphur-smelling burping” and the “mild (greater than 80% of baseline Hct) reversible anemia” value (metastatic solid tumors; human, in vivo) was 4 patients. The “only drug-related toxicity observed” value (metastatic solid tumors; human, in vivo) was “mild anemia in one patient”, the “time for hematocrit to recover after stopping the drug” value (metastatic solid tumors; human, in vivo) was 5 to 7 days and the “time to rapid rise in Cp after TM discontinued” value (metastatic solid tumors; human, in vivo) was ≤ 48 h. The “toxicities at Cp levels at or above 20% of baseline” value (metastatic solid tumors; human, in vivo) was “no cardiac, pulmonary, GI, renal, hepatic, hematologic, infectious, skin, mucosal, or neurologic toxicities observed”, the “treated patients maintained at target Cp for more than 90 days” value (metastatic solid tumors; human, in vivo) was 39% and the “patients with serum Cp lowered to 50% of baseline” value (metastatic solid tumors; initial TM 90 to 120 mg per day) was 17 out of 18 patients. The “duration of stable disease on TM treatment” value (metastatic solid tumors; one patient, previously untreated metastatic breast cancer) was “over 6 months”, the “decrease in blood flow to tumor mass (3D-ultrasound)” value (metastatic solid tumors; rib metastasis of renal cell carcinoma, approximately 8 weeks after target copper deficiency) was 4.4 fold and the “tolerance of TM injections” value ([1]; IV 50 or 100 mg 2x weekly, copper loaded sheep) was “tolerated up to 22 injections of TM without clinical problems”. For the same substance, the “adverse side effects in commercial sheep flocks” value ([1]; over 400 animals treated) was “no adverse side effects”, the half life [2] was “about 40 days” and the percentage activity ([2]; Day 0) was 100. The percentage activity ([2]; Day 45) was 44, the percentage activity ([2]; Day 148) was 9 and the percentage activity ([2]; Day 211) was 0. The “tumor growth rate, final tumor size and weight” value ([3]; TM sufficient to reduce Cp to about 10% of normal, 16 days observation) was “significant effect on reducing the growth rate of tumors, and on reducing final tumor size and weight”, the “tumor weight normalized to total weight of the animal versus control” value ([3]; mouse, in vivo) was “weighed significantly less than the tumors in control mice” and the “potency retained in gelatin capsules” value ([4]; eight weeks) was “at least 90%”. For the same substance, the “stability of bulk drug” value ([4]; under argon) was “stable for several years under argon”, the “palpable tumors in treatment groups” value ([5]; TM 1.2 mg/day/mouse in drinking water from day -7) was “no tumors were palpable until TM was skipped on day 34” and the copper level ([5]; full dose TM 1.2 mg/day/mouse) was 10-20 % of baseline levels. The “tumor growth after day 34” value ([5]; full dose TM 1.2 mg/day/mouse) was “only very small tumors have grown”, the “decrease of copper levels” value [5, 12] was 50% and the “tumor growth after day 34” value [5, 12] was “the tumors grew more rapidly”. For the same substance, the “increase of loss of activity in moist heated air over ambient conditions” value [6] was “about 10 fold”, the “effective decoppering serum concentration relative to threshold lethal level for cells (fold lower)” value [7] was 100-500 fold and the excreted in feces [8] was 5%. For the same substance, the excreted in urine [8] was “over 90%”, the “t1/2 of slow plasma disappearance” value [8] was “about 40 h” and the stability in capsules [9] was “stable in capsules for several months at room temperature”. For the same substance, the anemia ([10]; 18 mg of TM) was “the anemia was severe”, the effects in rats ([10]; approximately 6 mg of TM per kilogram of diet) was “substantial effects on copper” and the anemia ([10]; approximately 12 mg of TM) was “Mild anemia was present”. The skeletal lesions ([10]; approximately 12 mg of TM) was “one of six animals”, the “prevention of toxic effects by copper” value ([10]; up to 36 mg of TM per kilogram of diet) was “could be prevented by oral supplementation with copper” and the “efficacy in LEC rats” value [11] was “very effective”.
